Assay results taken from article PMC11219871, “Epigenetic-based differentiation therapy for Acute Myeloid Leukemia” (Nature Communications, 2024).
Several values for one entry are separate records, joined by “and”; a condition that tells them apart may be missing. Identical values can stand only once. Like-named read-outs stand apart in the source and are kept apart here.

Columns and labels:
Type in all cases: cell-based, human
HL-60 [1] = experiment: Differentiation-apoptosis assay, CD11b / annexin-V / Sytox Green / myeloid markers flow cytometry; design: Cell viability (%): concentration or dose not given beside the values; CD11b levels: unit not given here; settings: for CD11b (%) / Cell viability (%): HL-60, 48 h treatment, replicates 1-3 (Suppl. Fig. 5A); for Annexin V (%) Replicate 1 / Annexin V (%) Replicate 2 / Annexin V (%) Replicate 3 / CD11b (%) Replicate 1 / CD11b (%) Replicate 2 / CD11b (%) Replicate 3: HL-60, daily 25% GI50, 48 h
Experimental: Next, the cells were washed twice with phosphate-buffered saline (PBS) and resuspended in 1X Binding Buffer at a concentration of 1 × 10^6 cells/mL. […] Finally, after the addition of 400 µL of 1X Binding Buffer to each tube, samples were collected on a BD FACSCanto flow cytometer (Becton Dickinson, San Jose, CA, USA) and analyzed using FlowJo software.
Then, 1 million cells (volume of 250 µL) were added and incubated for 30 min at room temperature in darkness. After 10 min incubation at room temperature with 2 mL of FACSLysing 1X, cells were centrifuged at 540 g for 5 min and washed twice with FACSBuffer. Finally, after centrifugation at 540 g for 5 min cells were resuspended in FACSBuffer.

MOLM-13 [2] = experiment: as above; design: Cell viability (%): concentration or dose not given beside the values; CD11b levels: unit not given here; settings: for CD11b (%) / Cell viability (%): MOLM-13, 48 h treatment, replicates 1-3 (Suppl. Fig. 5A)
Experimental: (§1) Next, the cells were washed twice with phosphate-buffered saline (PBS) and resuspended in 1X Binding Buffer at a concentration of 1 × 10^6 cells/mL. An 8-µL aliquot of APC-CD11b (BD Pharmingen, Franklin Lakes, NJ, USA) and 1 µL of FITC annexin-V (AV) (BD Pharmingen, Franklin Lakes, NJ, USA) antibodies were added and incubated for 15 min at room temperature in the dark. Finally, after the addition of 400 µL of 1X Binding Buffer to each tube, samples were collected on a BD FACSCanto flow cytometer (Becton Dickinson, San Jose, CA, USA) and analyzed using FlowJo software.
(§2) For the rest of experiments, the mix of antibodies (2 µL of BV786-CD13, Cat No, 744748 BD; 1 µL of diluted 1:10 antibody of PB-HLADR, Cat No 307633, Biolegend; 5 µL of APCH7-CD14, Cat No 641394, BD) was added to 10 µL of Brilliant Stain Buffer Plus (Becton Dickinson, San Jose, CA, USA). Then, 1 million cells (volume of 250 µL) were added and incubated for 30 min at room temperature in darkness. After 10 min incubation at room temperature with 2 mL of FACSLysing 1X, cells were centrifuged at 540 g for 5 min and washed twice with FACSBuffer. Finally, after centrifugation at 540 g for 5 min cells were resuspended in FACSBuffer.

MV4-11 [3] = experiment: as above; design: Cell viability (%): concentration or dose not given beside the values; CD11b levels: unit not given here; settings: for CD11b (%) / Cell viability (%): MV4-11, 48 h treatment, replicates 1-3 (Suppl. Fig. 5A)
Experimental: as §1, §2

ML-2 [4] = experiment: Cell proliferation assay: GI50
Experimental: (§3) Cell proliferation was analyzed using the CellTiter 96 Aqueous One Solution Cell Proliferation Assay (Promega, Madison, WI). This is a colorimetric method for determining the number of viable cells in proliferation. For the assay, suspension cells were cultured in triplicate at a density of 1 × 10^6 cells/mL in 96-well plates (100.000 cells/well, 100 µL/well), using only the 60 inner wells to avoid any border effects. […] Then, the cells were incubated with 100 μL/well of medium and 20 μL/well of CellTiter 96 Aqueous One Solution reagent for 1–3 h. […] The background absorbance was measured in wells with only cell line medium and solution reagent. First, the average of the absorbance from the control wells was subtracted from all other absorbance values. Data were calculated as the percentage of total absorbance of treated cells/absorbance of non-treated cells. The GI50 values of the different compounds were determined using non-linear regression plots made with GraphPad Prism v5 software.

MOLM-13 [5] = experiment: Cell proliferation assay: GI50
Experimental: as §3

HL-60 [6] = experiment: Cell proliferation assay: GI50; settings: read-out: GI50
Experimental: as §3

MV4-11 [7] = experiment: Cell proliferation assay: GI50
Experimental: as §3

ML-2 [8] = experiment: Differentiation-apoptosis assay, CD11b / annexin-V / Sytox Green / myeloid markers flow cytometry; design: Cell viability: concentration or dose not given beside the values; CD11b levels: unit not given here; settings: for CD11b / Cell viability: ML-2, 48 h, replicates (Fig 4A)
Experimental: as §1, §2

[9] = system: LINE-1 DNA methylation in HL-60; experiment: LINE-1 pyrosequencing; settings: HL-60, 10 days
Experimental: (§4) DNA methylation of the repetitive element LINE-1 was analyzed using a pyrosequencing technique. […] Cells were washed twice with PBS, and then genomic DNA was extracted using a DNA Kit (Nucleo Spin Tissue, Cat No 74095250, Macherey-Nagel) following the manufacturer's instructions. DNA purity and concentration were measured using a NanoDrop spectrophotometer (Thermo Scientific). A 1 μg amount of genomic DNA was treated and modified using a CpGenome DNA modification Kit (Cat No S7820, Chemicon International) following the manufacturer's instructions. […] [NT]) in a final volume of 25 μL. The resulting biotinylated PCR products were immobilized to Streptavidin Sepharose ® High-Performance beads (GE Healthcare) and processed to yield high-quality ssDNA using the PyroMark Vacuum Prep Workstation (Biotage) according to the manufacturer's instructions. The pyrosequencing reactions were performed using the PyromarkTM ID (Biotage), and sequence analysis was performed using the PyroQ-CpG analysis software (Biotage).

[10] = system: LINE-1 DNA methylation in MV4-11; experiment: LINE-1 pyrosequencing; settings: MV4-11, 5 days
Experimental: as §4

[11] = system: LINE-1 DNA methylation in ML-2; experiment: LINE-1 pyrosequencing; settings: ML-2, 10 days
Experimental: as §4

[12] = system: LINE-1 DNA methylation in MOLM-13; experiment: LINE-1 pyrosequencing; settings: MOLM-13, 5 days
Experimental: as §4

[13] = ML-2, replicates 1-3, µM for the other inhibitors
[14] = MOLM-13, replicates 1-3, µM for the other inhibitors
[15] = HL-60, replicates 1-3, µM for the other inhibitors
[16] = MV4-11, replicates 1-3, µM for the other inhibitors

Compound | CD11b (%) (HL-60 [1]) | Cell viability (%) (HL-60 [1]) | CD11b (%) (MOLM-13 [2]) | Cell viability (%) (MOLM-13 [2]) | CD11b (%) (MV4-11 [3]) | Cell viability (%) (MV4-11 [3]) | GI50 (ML-2 [4]; [13]) | GI50 (MOLM-13 [5]; [14]) [µM] | GI50 (HL-60 [6]; [15]) | GI50 (MV4-11 [7]; [16]) | CD11b (ML-2 [8]) | Cell viability (ML-2 [8]) | Annexin V (%) Replicate 1 (HL-60 [1]) [%] | Annexin V (%) Replicate 2 (HL-60 [1]) [%] | Annexin V (%) Replicate 3 (HL-60 [1]) [%] | CD11b (%) Replicate 1 (HL-60 [1]) [%] | CD11b (%) Replicate 2 (HL-60 [1]) [%] | CD11b (%) Replicate 3 (HL-60 [1]) [%] | further results
Nc1ccccc1NC(=O)c1ccc(CNC(=O)OCc2cccnc2)cc1 [Entinostat, reference compound] | 32.6% and 37.2% and 30.1% | 38.4% and 38.5% and 40.7% | 76.1% and 83.2% and 84.3% | 47.7% and 56.4% and 56.1% | 41.0% and 45.6% and 43.2% | 35.1% and 39.2% and 39.7% | 10.9 µM and 9.8 µM | 2 | 8.3 µM and 7.3 µM | 2.8 µM and 3 µM | 25.1% and 39.8% and 36.7% | 59.1% and 65.7% and 58.8% | – | – | – | – | – | – | GI50 (ML-2 [4]; Homo sapiens, ML-2, 48 h): 9.1 µM; GI50 (ML-2 [4]; Homo sapiens, ML-2, ML-2, replicates 1-3, µM for the other inhibitors): 6.6 µM; GI50 (MOLM-13 [5]; Homo sapiens, MOLM-13, 48 h): 2.4 µM; GI50 (MOLM-13 [5]; Homo sapiens, MOLM-13, MOLM-13, replicates 1-3, µM for the other inhibitors): 2.6 µM; GI50 (HL-60 [6]; Homo sapiens, HL-60, HL-60, replicates 1-3, µM for the other inhibitors): 7.8 µM; GI50 (MV4-11 [7]; Homo sapiens, MV4-11, MV4-11, replicates 1-3, µM for the other inhibitors): 3.3 µM
Nc1ncn([C@H]2C[C@H](O)[C@@H](CO)O2)c(=O)n1 [Decitabine, reference compound] | – | – | – | – | – | – | – | – | – | – | – | – | 4.10 | 3.17 | 2.48 | 7.50 | 9.90 | 9.03 | LINE-1 methylation (%) CG Position 1 [9]: 35% and 39%; LINE-1 methylation (%) CG Position 2 [9]: 32% and 40%; LINE-1 methylation (%) CG Position 3 [9]: 43% and 55%; LINE-1 methylation (%) CG Position 4 [9]: 44% and 52%; LINE-1 methylation (%) CG Position 5 [9]: 33% and 37%; LINE-1 methylation (%) CG Position 1 [10]: 53% and 47%; LINE-1 methylation (%) CG Position 2 [10]: 50% and 54%; LINE-1 methylation (%) CG Position 3 [10]: 53% and 55%; LINE-1 methylation (%) CG Position 4 [10]: 55% and 53%; LINE-1 methylation (%) CG Position 5 [10]: 43% and 45%; LINE-1 methylation (%) CG Position 1 [11]: 36% and 34%; LINE-1 methylation (%) CG Position 2 [11]: 39% and 33%; LINE-1 methylation (%) CG Position 3 [11]: 42%; LINE-1 methylation (%) CG Position 4 [11]: 41% and 39%; LINE-1 methylation (%) CG Position 5 [11]: 32% and 28%; LINE-1 methylation (%) CG Position 1 [12]: 36% and 38%; LINE-1 methylation (%) CG Position 2 [12]: 37% and 43%; LINE-1 methylation (%) CG Position 3 [12]: 48% and 46%; LINE-1 methylation (%) CG Position 4 [12]: 46% and 54%; LINE-1 methylation (%) CG Position 5 [12]: 37% and 35%
CCNC(=O)C[C@@H]1N=C(c2ccc(Cl)cc2)c2cc(OC)ccc2-n2c(C)nnc21 [Molibresib, reference compound] | – | – | – | – | – | – | – | – | – | – | – | – | – | – | – | – | – | – | CD11b levels (HL-60 [1]; HL-60 treated daily for 48 h, replicates (Fig 6D)): 14.6 and 15.6 and 12.7; CD11b levels (MOLM-13 [2]; MOLM-13, daily treatment for 48 h, replicates 1-3 (Suppl. Fig. 9A)): 13.1 and 10.8 and 12.3; CD11b levels (MV4-11 [3]; MV4-11, daily treatment for 48 h, replicates 1-3 (Suppl. Fig. 9A)): 12.1 and 15.4 and 13.7; CD11b levels (ML-2 [8]; ML-2 treated daily for 48 h, replicates (Fig 6E)): 15.1 and 13.2 and 11.7
CN1CCc2c(c3ccccc3n2Cc2ccc(C(=O)NO)cc2)C1 [Tubastatin, reference compound] | 26.8% and 22.6% and 20.1% | 69.4% and 76.8% and 76.1% | 29.6% and 36.5% and 39.8% | 74.1% and 65.3% and 78.4% | 9.3% and 10.2% and 12.6% | 89.7% and 84.3% and 92.1% | > 10 µM | > 10 | > 10 µM | > 10 µM | 28.3% and 27.1% and 25.0% | 83.1% and 89.7% and 79.2% | – | – | – | – | – | – | GI50 (ML-2 [4]; ML-2, 48 h): > 10 µM; GI50 (MOLM-13 [5]; MOLM-13, 48 h): > 10 µM; GI50 (HL-60 [6]; HL-60, 48 h): > 10 µM; GI50 (MV4-11 [7]; MV4-11, 48 h): > 10 µM
CCCc1nn(C)c2c(=O)[nH]c(-c3cc(S(=O)(=O)N4CCN(C)CC4)ccc3OCC)nc12 [Sildenafil, reference compound] | – | – | – | – | – | – | – | – | – | – | – | – | 0.22 | 0.14 | 0.18 | 0.00 | 4.74 | 4.47 | –
COc1cc2c(cc1OCCCN1CCCC1)N=C(N)C21CCC1 [Compound A-366, A-366, reference compound] | – | – | – | – | – | – | – | – | – | – | – | – | 1.45 | 1.05 | 1.10 | 9.70 | 5.40 | 4.85 | –
